Experimental data from PubChem BioAssay AID1259407 (Chemical Carcinogenesis Research Information System (CCRIS), 2018).
Active and inactive are the calls of the source. No rule for the calls is given here.

System: CCRIS mutagenicity, Ames/micronucleus/aberration tests
Experiment: CCRIS mutagenicity studies
[1] = Test System: AMES SALMONELLA TYPHIMURIUM, Strain/Indicator: TA98, Metabolic Activation: NONE, Method: PREINCUBATION
[2] = Test System: AMES SALMONELLA TYPHIMURIUM, Strain/Indicator: TA100, Metabolic Activation: NONE, Method: PREINCUBATION

**Q.** Which results are given for `CCCCCCCCBr`?
**A.** mutagenic call [1]: inactive; negative; mutagenic call (Test System: AMES SALMONELLA TYPHIMURIUM, Strain/Indicator: TA98, Metabolic Activation: RAT LIVER S-9, PHENOBARBITAL AND BETA-NAPHTHOFLAVONE, Method: PREINCUBATION): inactive; negative; mutagenic call [2]: inactive; negative; mutagenic call (Test System: AMES SALMONELLA TYPHIMURIUM, Strain/Indicator: TA100, Metabolic Activation: RAT LIVER S-9, PHENOBARBITAL AND BETA-NAPHTHOFLAVONE, Method: PREINCUBATION): inactive; negative; mutagenic call (Test System: AMES SALMONELLA TYPHIMURIUM, Strain/Indicator: TA102, Metabolic Activation: NONE, Method: PREINCUBATION): inactive; negative; mutagenic call (Test System: AMES SALMONELLA TYPHIMURIUM, Strain/Indicator: TA102, Metabolic Activation: RAT LIVER S-9, PHENOBARBITAL AND BETA-NAPHTHOFLAVONE, Method: PREINCUBATION): inactive; negative; mutagenic call (Test System: AMES SALMONELLA TYPHIMURIUM, Strain/Indicator: TA104, Metabolic Activation: NONE, Method: PREINCUBATION): inactive; negative; mutagenic call (Test System: AMES SALMONELLA TYPHIMURIUM, Strain/Indicator: TA104, Metabolic Activation: RAT LIVER S-9, PHENOBARBITAL AND BETA-NAPHTHOFLAVONE, Method: PREINCUBATION): inactive; negative; mutagenic call (Test System: AMES SALMONELLA TYPHIMURIUM, Strain/Indicator: TA1535, Metabolic Activation: NONE, Method: PREINCUBATION): inactive; negative; mutagenic call (Test System: AMES SALMONELLA TYPHIMURIUM, Strain/Indicator: TA1535, Metabolic Activation: RAT LIVER S-9, PHENOBARBITAL AND BETA-NAPHTHOFLAVONE, Method: PREINCUBATION): inactive; negative; mutagenic call (Test System: AMES SALMONELLA TYPHIMURIUM, Strain/Indicator: TA1537, Metabolic Activation: NONE, Method: PREINCUBATION): inactive; negative; mutagenic call (Test System: AMES SALMONELLA TYPHIMURIUM, Strain/Indicator: TA1537, Metabolic Activation: RAT LIVER S-9, PHENOBARBITAL AND BETA-NAPHTHOFLAVONE, Method: PREINCUBATION): inactive; negative; mutagenic call (Test System: E.COLI, Strain/Indicator: WP2UVRA/PKM101, Metabolic Activation: NONE, Method: PREINCUBATION): inactive; negative; mutagenic call (Test System: E.COLI, Strain/Indicator: WP2UVRA/PKM101, Metabolic Activation: RAT LIVER S-9, PHENOBARBITAL AND BETA-NAPHTHOFLAVONE, Method: PREINCUBATION): inactive; negative; mutagenic call (Test System: E.COLI, Strain/Indicator: WP2UVRA, Metabolic Activation: NONE, Method: PREINCUBATION): inactive; negative; mutagenic call (Test System: E.COLI, Strain/Indicator: WP2UVRA, Metabolic Activation: RAT LIVER S-9, PHENOBARBITAL AND BETA-NAPHTHOFLAVONE, Method: PREINCUBATION): inactive; negative

**Q.** With `ClCOCCl` as the compound, how does the mutagenic call (Test System: AMES SALMONELLA TYPHIMURIUM, Strain/Indicator: G46, Metabolic Activation: NONE, Method: STANDARD PLATE) read?
**A.** active; positive

**Q.** Which mutagenic call (Test System: AMES SALMONELLA TYPHIMURIUM, Strain/Indicator: TA98, Metabolic Activation: HAMSTER, LIVER, S-9, AROCLOR 1254, Method: STANDARD PLATE) does the source give for `O=c1[nH]cnc2c1ncn2[C@H]1CC[C@@H](CO)O1` here?
**A.** inactive; negative

**Q.** What about the mutagenic call (Test System: AMES SALMONELLA TYPHIMURIUM, Strain/Indicator: TA98, Metabolic Activation: NONE, Method: STANDARD PLATE) of the same compound?
**A.** inactive; negative

**Q.** And the mutagenic call (Test System: AMES SALMONELLA TYPHIMURIUM, Strain/Indicator: TA98, Metabolic Activation: RAT, LIVER, S-9, AROCLOR 1254, Method: STANDARD PLATE)?
**A.** inactive; negative

**Q.** What about the mutagenic call (Test System: AMES SALMONELLA TYPHIMURIUM, Strain/Indicator: TA100, Metabolic Activation: HAMSTER, LIVER, S-9, AROCLOR 1254, Method: STANDARD PLATE) of the same compound?
**A.** inactive; negative

**Q.** And the mutagenic call (Test System: AMES SALMONELLA TYPHIMURIUM, Strain/Indicator: TA100, Metabolic Activation: NONE, Method: STANDARD PLATE)?
**A.** inactive; negative

**Q.** What about the mutagenic call (Test System: AMES SALMONELLA TYPHIMURIUM, Strain/Indicator: TA100, Metabolic Activation: RAT, LIVER, S-9, AROCLOR 1254, Method: STANDARD PLATE) of the same compound?
**A.** inactive; negative

**Q.** And the mutagenic call (Test System: AMES SALMONELLA TYPHIMURIUM, Strain/Indicator: TA1535, Metabolic Activation: HAMSTER, LIVER, S-9, AROCLOR 1254, Method: STANDARD PLATE)?
**A.** inactive; negative

**Q.** What about the mutagenic call (Test System: AMES SALMONELLA TYPHIMURIUM, Strain/Indicator: TA1535, Metabolic Activation: NONE, Method: STANDARD PLATE) of the same compound?
**A.** inactive; negative

**Q.** And the mutagenic call (Test System: AMES SALMONELLA TYPHIMURIUM, Strain/Indicator: TA1535, Metabolic Activation: RAT, LIVER, S-9, AROCLOR 1254, Method: STANDARD PLATE)?
**A.** inactive; negative

**Q.** What about the mutagenic call (Test System: AMES SALMONELLA TYPHIMURIUM, Strain/Indicator: TA1537, Metabolic Activation: HAMSTER, LIVER, S-9, AROCLOR 1254, Method: STANDARD PLATE) of the same compound?
**A.** inactive; negative

**Q.** What about the mutagenic call (Test System: AMES SALMONELLA TYPHIMURIUM, Strain/Indicator: TA1537, Metabolic Activation: NONE, Method: STANDARD PLATE) of the same compound?
**A.** inactive; negative

**Q.** And the mutagenic call (Test System: AMES SALMONELLA TYPHIMURIUM, Strain/Indicator: TA1537, Metabolic Activation: RAT, LIVER, S-9, AROCLOR 1254, Method: STANDARD PLATE)?
**A.** inactive; negative

**Q.** And the mutagenic call (Test System: AMES SALMONELLA TYPHIMURIUM, Strain/Indicator: TA1538, Metabolic Activation: HAMSTER, LIVER, S-9, AROCLOR 1254, Method: STANDARD PLATE)?
**A.** inactive; negative

**Q.** And the mutagenic call (Test System: AMES SALMONELLA TYPHIMURIUM, Strain/Indicator: TA1538, Metabolic Activation: NONE, Method: STANDARD PLATE)?
**A.** inactive; negative

**Q.** And the mutagenic call (Test System: AMES SALMONELLA TYPHIMURIUM, Strain/Indicator: TA1538, Metabolic Activation: RAT, LIVER, S-9, AROCLOR 1254, Method: STANDARD PLATE)?
**A.** inactive; negative

**Q.** And the mutagenic call (Test System: HUMAN B LYMPHOBLASTOID CELLS, Strain/Indicator: TK6 CELL (HPRT)/6-THIOGUANINE, Metabolic Activation: NONE, Method: SUSPENSION/PLATE)?
**A.** active; positive

**Q.** What about the mutagenic call (Test System: HUMAN B LYMPHOBLASTOID CELLS, Strain/Indicator: TK6 CELL (TK+/-)/TRIFLUOROTHYMIDINE, Metabolic Activation: NONE, Method: SUSPENSION/PLATE) of the same compound?
**A.** active; positive

**Q.** How did the mutagenic call [2] turn out when `CC\C=C/C=C\C=C/C=C\C=C/OCC(C)O` (centres undefined) was run?
**A.** active; positive

**Q.** What does the source list for `NNc1nncc2cnccc12`?
**A.** mutagenic call [1]: active; positive; mutagenic call (Test System: AMES SALMONELLA TYPHIMURIUM, Strain/Indicator: TA98, Metabolic Activation: RAT, LIVER, S-9, PCB, Method: PREINCUBATION): active; positive; mutagenic call [2]: active; positive; mutagenic call (Test System: AMES SALMONELLA TYPHIMURIUM, Strain/Indicator: TA100, Metabolic Activation: RAT, LIVER, S-9, PCB, Method: PREINCUBATION): active; positive
